Measured values reported in ChEMBL document CHEMBL1201862, “PubChem BioAssay data set” (2004).
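Growth conditions: 96-well plates. Treatment: test compound, 48 hours, 5 concentrations. Analysis: linear interpolation between bracketing concentrations; unreached endpoints set to highest concentration. Here, GI50 denotes the concentration required for 50% inhibition of growth.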 The source made the active and inactive calls. No stated cut-off is given here; in the data, active = GI50 up to about 1.1 µM and inactive = higher.

What was measured:
Experiment in all cases: NCI-60 cell line screen, 48 h
[1] = system: BT-549
[2] = system: CAKI-1
[3] = system: HT-29
[4] = system: MDA-MB-435
[5] = system: SF-268
[6] = system: Malme-3M
[7] = system: PC-3
[8] = system: Hs-578T
[9] = system: SF-295
[10] = system: 786-0
[11] = system: MDA-N
[12] = system: MCF7
[13] = system: U-251
[14] = system: SN12C
[15] = system: OVCAR-8
[16] = system: SNB-19
[17] = system: COLO 205
[18] = system: SW-620
[19] = system: ACHN
[20] = system: SR
[21] = system: NCI-H522
[22] = system: HCT-116
[23] = system: EKVX
[24] = system: RXF 393
[25] = system: HL-60
[26] = system: UO-31
[27] = system: K562
[28] = system: A498
[29] = system: NCI-H23
[30] = system: LOX IMVI
[31] = system: NCI-H460
[32] = system: MOLT-4
[33] = system: SK-MEL-28
[34] = system: HCC 2998
[35] = system: MDA-MB-231
[36] = system: SK-OV-3
[37] = system: HOP-62
[38] = system: TK-10
[39] = system: DU-145
[40] = system: IGROV-1
[41] = system: HCT-15
[42] = system: OVCAR-5
[43] = system: OVCAR-4
[44] = system: SK-MEL-2
[45] = system: CCRF-CEM
[46] = system: UACC-62
[47] = system: RPMI-8226
[48] = system: NCI/ADR-RES
[49] = system: OVCAR-3
[50] = system: M14
[51] = system: KM12
[52] = system: T47D
[53] = system: UACC-257
[54] = system: SF-539
[55] = system: SK-MEL-5
[56] = system: A549
[57] = system: NCI-H226
[58] = system: SNB-75
[59] = system: HOP-92

With `COC1=C(OC)C(=O)C(Cc2c(Cl)nc3n2CCS3)=C(C)C1=O` the GI50 [1] was 14.4 µM (inactive), the GI50 [2] was 16.6 µM (inactive) and the GI50 [3] was 17 µM (inactive). For the same compound, the GI50 [4] was 13.9 µM (inactive), the GI50 [5] was 17.6 µM (inactive) and the GI50 [6] was 7.83 µM (inactive). For the same compound, the GI50 [7] was 17.7 µM (inactive), the GI50 [8] was 19.8 µM (inactive) and the GI50 [9] was 14.8 µM (inactive). For the same compound, the GI50 [10] was 18.2 µM (inactive), the GI50 [11] was 13.9 µM (inactive) and the GI50 [12] was 12.9 µM (inactive). The GI50 [13] was 17.5 µM (inactive), the GI50 [14] was 16.3 µM (inactive) and the GI50 [15] was 15.3 µM (inactive). The GI50 [16] was 16.2 µM (inactive), the GI50 [17] was 17.2 µM (inactive) and the GI50 [18] was 18 µM (inactive). The GI50 [19] was 14.8 µM (inactive), the GI50 [20] was 7.59 µM (inactive) and the GI50 [21] was 11.6 µM (inactive). For the same compound, the GI50 [22] was 11.7 µM (inactive), the GI50 [23] was 12.1 µM (inactive) and the GI50 [24] was 17.4 µM (inactive). For the same compound, the GI50 [25] was 2.3 µM (inactive), the GI50 [26] was 13.7 µM (inactive) and the GI50 [27] was 15.5 µM (inactive). For the same compound, the GI50 [28] was 18.9 µM (inactive), the GI50 [29] was 12.3 µM (inactive) and the GI50 [30] was 6.35 µM (inactive). The GI50 [31] was 15 µM (inactive), the GI50 [32] was 1.36 µM (inactive) and the GI50 [33] was 14.2 µM (inactive). The GI50 [34] was 16.5 µM (inactive), the GI50 [35] was 4.04 µM (inactive) and the GI50 [36] was 12.6 µM (inactive). The GI50 [37] was 15.6 µM (inactive), the GI50 [38] was 15.6 µM (inactive) and the GI50 [39] was 17.2 µM (inactive). The GI50 [40] was 16.9 µM (inactive), the GI50 [41] was 17.1 µM and the GI50 [42] was 17.6 µM (inactive). The GI50 [43] was 7.73 µM (inactive), the GI50 [44] was 14.6 µM (inactive) and the GI50 [45] was 2.81 µM (inactive). The GI50 [46] was 12.1 µM (inactive), the GI50 [47] was 6.53 µM (inactive) and the GI50 [48] was 12.8 µM (inactive). For the same compound, the GI50 [49] was 16.7 µM (inactive), the GI50 [50] was 13.1 µM (inactive) and the GI50 [51] was 14 µM (inactive). For the same compound, the GI50 [52] was 4.13 µM (inactive), the GI50 [53] was 9.84 µM (inactive) and the GI50 [54] was 14.6 µM (inactive). For the same compound, the GI50 [55] was 11.7 µM (inactive) and the GI50 [56] was 15.3 µM (inactive).

With `Cc1ccccc1OC(C)C(=O)NN1C(=O)CSC1c1ccccc1` (stereo not drawn) the GI50 [1] was > 100 µM (inactive), the GI50 [2] was > 100 µM (inactive) and the GI50 [3] was 93.1 µM (inactive). The GI50 [4] was 79.3 µM (inactive), the GI50 [5] was > 100 µM (inactive) and the GI50 [6] was > 100 µM (inactive). For the same compound, the GI50 [7] was > 100 µM (inactive), the GI50 [8] was > 100 µM (inactive) and the GI50 [57] was 67.1 µM (inactive). The GI50 [9] was 56.2 µM (inactive), the GI50 [10] was > 100 µM (inactive) and the GI50 [58] was 60.7 µM (inactive). The GI50 [11] was 53.2 µM (inactive), the GI50 [12] was 38.5 µM (inactive) and the GI50 [13] was 96.4 µM (inactive). The GI50 [14] was > 100 µM (inactive), the GI50 [15] was > 100 µM (inactive) and the GI50 [16] was 67.6 µM (inactive). The GI50 [17] was > 100 µM (inactive), the GI50 [18] was > 100 µM (inactive) and the GI50 [19] was 60.5 µM (inactive). For the same compound, the GI50 [20] was 10.2 µM (inactive), the GI50 [21] was 61.9 µM (inactive) and the GI50 [22] was 53.1 µM (inactive). For the same compound, the GI50 [23] was 83.2 µM (inactive), the GI50 [24] was 45 µM (inactive) and the GI50 [26] was 63.2 µM (inactive). The GI50 [27] was 14.7 µM (inactive), the GI50 [28] was 34.3 µM (inactive) and the GI50 [29] was 53.2 µM (inactive). For the same compound, the GI50 [30] was > 100 µM (inactive), the GI50 [31] was 93.5 µM (inactive) and the GI50 [32] was < 0.01 µM (active). The GI50 [33] was > 100 µM (inactive), the GI50 [34] was 63.2 µM (inactive) and the GI50 [35] was > 100 µM (inactive). The GI50 [36] was > 100 µM (inactive), the GI50 [37] was > 100 µM (inactive) and the GI50 [38] was > 100 µM (inactive). The GI50 [39] was > 100 µM (inactive), the GI50 [40] was > 100 µM (inactive) and the GI50 [41] was 65.3 µM. For the same compound, the GI50 [42] was > 100 µM (inactive), the GI50 [43] was > 100 µM (inactive) and the GI50 [59] was 47.8 µM (inactive). For the same compound, the GI50 [44] was > 100 µM (inactive), the GI50 [46] was 64.7 µM (inactive) and the GI50 [47] was 34.2 µM (inactive). The GI50 [48] was 72.8 µM (inactive), the GI50 [49] was 58.7 µM (inactive) and the GI50 [50] was > 100 µM (inactive). The GI50 [51] was 93.5 µM (inactive), the GI50 [52] was 34.7 µM (inactive) and the GI50 [53] was 45.2 µM (inactive). For the same compound, the GI50 [54] was > 100 µM (inactive), the GI50 [55] was 32.2 µM (inactive) and the GI50 [56] was 42 µM (inactive).

In the case of `COC(=O)/N=[N+](\[O-])C(c1ccc(Cl)cc1)c1ccc(Cl)cc1`, the GI50 [1] is reported as 53.8 µM (inactive), the GI50 [2] is reported as 10.1 µM (inactive) and the GI50 [3] is reported as 51.6 µM (inactive). For the same compound, the GI50 [4] was 38.1 µM (inactive), the GI50 [5] was 69.5 µM (inactive) and the GI50 [6] was 51.9 µM (inactive). For the same compound, the GI50 [7] was 27.2 µM (inactive), the GI50 [8] was 36.4 µM (inactive) and the GI50 [57] was 21.9 µM (inactive). For the same compound, the GI50 [10] was 27.1 µM (inactive), the GI50 [58] was 27.9 µM (inactive) and the GI50 [11] was 47.5 µM (inactive). For the same compound, the GI50 [12] was 33.9 µM (inactive), the GI50 [13] was 39.2 µM (inactive) and the GI50 [14] was 56.1 µM (inactive). The GI50 [15] was 36.3 µM (inactive), the GI50 [16] was 50.4 µM (inactive) and the GI50 [17] was 23.9 µM (inactive). The GI50 [18] was 48.6 µM (inactive), the GI50 [20] was 42 µM (inactive) and the GI50 [21] was 32.6 µM (inactive). For the same compound, the GI50 [22] was 23.8 µM (inactive), the GI50 [23] was 25.2 µM (inactive) and the GI50 [24] was 27.2 µM (inactive). For the same compound, the GI50 [25] was 20.7 µM (inactive), the GI50 [26] was 15.5 µM (inactive) and the GI50 [27] was 49.1 µM (inactive). For the same compound, the GI50 [28] was 31.8 µM (inactive), the GI50 [29] was 32 µM (inactive) and the GI50 [30] was 15.7 µM (inactive). For the same compound, the GI50 [31] was 38.9 µM (inactive), the GI50 [32] was 39.7 µM (inactive) and the GI50 [33] was 50.4 µM (inactive). The GI50 [34] was 32 µM (inactive), the GI50 [35] was 1.75 µM (inactive) and the GI50 [36] was 83.6 µM (inactive). The GI50 [38] was 36.1 µM (inactive), the GI50 [39] was 29.1 µM (inactive) and the GI50 [40] was 40.1 µM (inactive). For the same compound, the GI50 [41] was 30.8 µM, the GI50 [42] was 80.9 µM (inactive) and the GI50 [43] was 42.6 µM (inactive). For the same compound, the GI50 [44] was 34.1 µM (inactive), the GI50 [45] was 28.4 µM (inactive) and the GI50 [46] was 36.4 µM (inactive). The GI50 [47] was 21.9 µM (inactive), the GI50 [48] was 38.2 µM (inactive) and the GI50 [49] was 57.7 µM (inactive). The GI50 [50] was 31.3 µM (inactive), the GI50 [51] was 32.2 µM (inactive) and the GI50 [52] was 20.8 µM (inactive). For the same compound, the GI50 [53] was 34.6 µM (inactive), the GI50 [54] was 65.3 µM (inactive) and the GI50 [55] was 24.7 µM (inactive). For the same compound, the GI50 [56] was 40.1 µM (inactive).
